{"source": "patent US20010049353A1", "about": "“Method of using secretin and compositions made therefrom for the treatment of autism and other neurological, behavioral and immunological disorders” (Repligen Corporation, priority 1998, published 2001)", "key": {"[1]": {"test_system": "patient, a child with symptoms of autism", "assay": "Intravenous secretin infusion in a child with symptoms of autism (Example 1)", "assay_type": "in vivo, human", "text": "The present invention will be better understood from the following examples which are given by way of illustration and not by way of limitation. The patient, the same in both examples, is a child with symptoms of autism.\nThe patient in the present examples developed normally […], with the exception of gastrointestinal problems (i.e., chronic diarrhea and constipation) which began at about six months. At about thirteen months, when whole milk was introduced into their diet, the patient began having reoccurring ear infections. At about fourteen months, the patient appeared to lose the ability to process language, first receptively (at about 14 months) then expressively (at about 16 months). The patient also experienced episodes of “shivers” that appeared to be intermittent seizures.\nAfter consulting with numerous neurologists, pediatricians, child development specialists, audiologists, endocrinologists, allergists, and other medical professionals, no consistent diagnosis had been reached. […] The term autism is used herein for reference purposes only, and this invention is intended to apply to any number of pervasive developmental disorders as well as neurological and immunological disorders.\nFurther, the patient's secretin cells prior to receiving treatment, measured at a level of 9, are far below the normal limit in the range of 20-70.\nWhen the patient was […], the secretin was administered by way of an infusion as part of an upper gastrointestinal endoscopy. The secretin was used in this diagnostic procedure at the request of the patient's parents, one of which is an inventor of the present invention. The secretin used in this procedure is known as Secretin-Ferring available from Ferring Laboratories, Inc., Suffern, New York (See Appendix A). The secretin was dissolved in a […] of sodium chloride and administered in a dosage of 2 clinical units (CU) per kilogram (kg) body weight by intravenous injection over one minute. […] The diagnostic tests performed on the patient during this procedure also indicated gastric inflammation. […] The following Table I summarizes the improvements observed in the patient within 3 weeks after the infusion of secretin."}, "[2]": {"test_system": "patient, a child with symptoms of autism", "assay": "Daily transdermal secretin with DMSO in the same patient (Example 2)", "assay_type": "in vivo, human", "protocol": "At the time of this treatment, the patient was […]. Secretin was administered transdermally using pharmaceutical grade dimethyl sulfoxide (DMSO) (generally 99.9% pure) available from Clinic Service Co., Box 2512, Hemet Calif. 92543. The secretin (Secretin-Ferring) was administered daily in a dosage of about 75 CU over a five day period (i.e., about 15 CU daily). For each treatment, about 4 drops of DMSO were placed onto the skin of the patient, about 15 CU of the crystalline secretin was placed onto the DMSO, and the composition was rubbed into the skin."}, "[3]": {"test_system": "abnormal opioid peptides in autistic children", "conditions": "autistic children that responded to casein free and gluten free diet; measured before and after infusion; cited from earlier work"}}, "note": "No end group written: not given here.", "data": [{"substance": "secretin (HSDGTFTSELSRLRDSARLQRLLQGLV; not fully specified; ends and bridges not checked; UniProt P63298 33-59, looked up) [polypeptide hormone secreted by the mucosa of the duodenum and upper jejunum; used as Secretin-Ferring from Ferring Laboratories]", "values": [{"measurement": "time at which the rate of progress appeared to decrease", "setting": "[1]; after first infusion, behavioral improvements continued", "result": "about 5 weeks"}, {"measurement": "SPECT scan perfusion of the right posterior parietal and right temporal lobes", "setting": "[1]; after the treatment", "result": "improved"}, {"measurement": "rubella titers", "setting": "[1]; after the treatment, before: 5.8", "result": 2.3}, {"measurement": "serotonin levels in blood", "setting": "[1]; blood tests after the treatment", "result": "a rise in serotonin levels"}, {"measurement": "pancreatic juice released", "setting": "[1]; immediately after 2 CU/kg iv over one minute, usual rate 1-2 ml/min", "result": "approximately 10 ml/min"}, {"measurement": "result of second and third infusions", "setting": "[1]; second infusion about 9 months after the first, third about three months after the second", "result": "achieved the same results"}, {"measurement": "spinning episodes", "setting": "[1]; within 3 weeks after infusion, before: 1-2 times/week", "result": "No spinning episodes."}, {"measurement": "toilet training", "setting": "[1]; within 3 weeks after infusion, before: diapers only", "result": "Completely potty trained."}, {"measurement": "eye contact, share of the time", "setting": "[1]; within 3 weeks after infusion, before: minimal eye contact", "result": "Eye contact 75% of the time."}, {"measurement": "connections made between language and objects", "setting": "[1]; within 3 weeks after infusion, before: no apparent connections", "result": "Many connections made between"}, {"measurement": "words spoken", "setting": "[1]; within 3 weeks after infusion, before: two words", "result": "100's of words-will repeat some"}, {"measurement": "interaction with videos", "setting": "[1]; within 3 weeks after infusion, before: watch videos", "result": "Now, gets “involved” interactively"}, {"measurement": "water consumption", "setting": "[1]; within 3 weeks after infusion, no change, before: approximately 50 cups per day", "result": "change approximately 50 cups per cups per day"}, {"measurement": "chronic abnormal bowel movements", "setting": "[1]; within days after administration, no change in diet", "result": "became normal"}, {"measurement": "language", "setting": "[2]; transdermal with DMSO, about 15 CU daily, within about 6 months", "result": "progressed to spontaneous and conversational language"}, {"measurement": "autistic behavioral symptoms on stopping the daily dose", "setting": "[2]; when the daily dose of secretin is stopped", "result": "the autistic behavioral symptoms return"}, {"measurement": "abnormal opioid peptides after secretin infusion", "setting": "[3]", "result": "the peptides disappeared"}]}]}
